Measurements reported in patent US20230146507A1, “N-PHENYL-3-MERCAPTOPROPANAMIDE DERIVATIVES AS METALLO-BETA-LACTAMASE INHIBITORS FOR THE TREATMENT OF BACTERIAL INFECTIONS” (Helmholtz-Zentrum Für Infektionsforschung GmbH, priority 2020, published 2023).
Values after ≈ are worked out from the molar mass of the structure shown.

Columns and labels:
[1] = test system: S. marcescens NDM-1 (T2352); test: MIC assay, clinical isolate; format: cell-based; settings: S. marcescens NDM-1 (T2352)
E. coli KPC-2 (T2435) = test: MIC assay, clinical isolate; format: cell-based; settings: intrinsic antimicrobial activity
E. coli NDM-1 (T2359) = test: Checkerboard assay with imipenem, E. coli NDM-1 (T2359); format: cell-based; settings: Table 6
Experimental: (§1) Fractional inhibitory concentration index (FICI). The checkerboard assay was performed to test for synergy in vitro. […] FICIs≤0.5 were defined as synergistic; FICIs from >0.5 to […] were defined as additive; FICIs from 1 to ≤4 were defined as indifferent and FICIs>4 were defined as antagonistic (Doern, C. D. When Does 2 plus 2 Equal 5? A Review of Antimicrobial Synergy Testing. J. Clin. Microbial. 2014, 52 (12), 4124-4128. https://doi.org/10.1128/JCM.01121-14).

E. coli VIM-1 (T2544) = test: Checkerboard assay with imipenem, E. coli VIM-1 (T2544); format: cell-based
Experimental: as §1

[2] = test system: K. pneumoniae NDM-1 (T2301); test: MIC assay, clinical isolate; format: cell-based
E. cloacae VIM-1 (T2353) = test: MIC assay, clinical isolate; format: cell-based
E. cloacae GIM-1 (T2218) = test: MIC assay, clinical isolate; format: cell-based; settings: intrinsic antimicrobial activity; E. cloacae GIM-1 (T2218)
E. coli IMP-1 (T2360) = test: Checkerboard assay with imipenem, E. coli IMP-1 (T2360); format: cell-based
Experimental: as §1

E. cloacae NDM-1 (T2311) = test: MIC assay, clinical isolate; format: cell-based
[3] = test system: P. aeruginosa VIM-1 (T2357); test: MIC assay, clinical isolate; format: cell-based; settings: intrinsic antimicrobial activity
IMP-7 = IMP-7 (Pseudomonas aeruginosa, UniProt Q93AU3); test: In vitro inhibition assay (kinetic fluorescence-based activity assay), IMP-7; format: biochemical; settings: Means and SD of at least two independent experiments
IMP-7, sequence (Q93AU3 entry or part of it): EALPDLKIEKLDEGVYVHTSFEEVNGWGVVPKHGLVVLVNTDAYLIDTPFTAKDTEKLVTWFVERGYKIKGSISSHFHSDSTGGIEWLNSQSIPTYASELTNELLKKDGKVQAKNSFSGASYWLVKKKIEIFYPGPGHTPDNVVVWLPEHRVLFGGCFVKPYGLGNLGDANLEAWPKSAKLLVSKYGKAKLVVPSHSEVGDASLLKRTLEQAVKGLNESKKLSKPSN
Outline: (§2)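 Enzyme (VIM-1 4.0 nM, NDM-1 0.5 nM, IMP-7 0.1 nM final) preincubated with inhibitor 30 min at room temperature in 50 mM HEPES pH 7.5, 0.01% Triton X-100, 1% DMSO. Fluorocillin substrate added (888 nM as dissolved in buffer); fluorescence (ex 495/em 525) read kinetically. IC50 from eight concentrations, four-parameter fit, three independent experiments.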

[4] = test system: A. baumannii OXA-23 (T2434); test: MIC assay, clinical isolate; format: cell-based; settings: intrinsic antimicrobial activity
[5] = test system: different isolates from E. coli and P. aeruginosa; test: MIC assay, intrinsic antibacterial activity; format: cell-based; settings: compound alone
E. coli NDM-7 (T2239) = test: MIC assay, clinical isolate; format: cell-based; settings: E. coli NDM-7 (T2239)
VIM-1 = target: T1, VIM-1 (Pseudomonas aeruginosa, UniProt A0A0F7KYQ8); test: In vitro inhibition assay (kinetic fluorescence-based activity assay), VIM-1; format: biochemical; settings: Means and SD of at least two independent experiments
T1 construct: made in house
Outline: as §2

NDM-1 = target: T2, NDM-1 (Klebsiella pneumoniae, UniProt C7C422); test: In vitro inhibition assay (kinetic fluorescence-based activity assay), NDM-1; format: biochemical; settings: Means and SD of at least two independent experiments
T2 construct: made in house
T2 sequence (C7C422 29-270, looked up, species assumed): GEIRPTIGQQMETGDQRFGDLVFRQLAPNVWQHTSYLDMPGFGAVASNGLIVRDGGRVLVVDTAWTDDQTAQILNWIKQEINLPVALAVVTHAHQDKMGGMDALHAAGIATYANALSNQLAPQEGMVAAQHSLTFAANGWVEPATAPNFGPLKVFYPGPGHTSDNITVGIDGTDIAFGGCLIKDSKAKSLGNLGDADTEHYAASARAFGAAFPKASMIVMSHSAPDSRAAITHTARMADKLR
Outline: as §2

[6] = test system: P. aeruginosa IMP-1 (T2325); test: MIC assay, clinical isolate; format: cell-based; settings: intrinsic antimicrobial activity; P. aeruginosa IMP-1 (T2325)
E. coli NDM-5 (T2351) = test: MIC assay, clinical isolate; format: cell-based
[7] = intrinsic antimicrobial activity

How did the “MIC (mg/L) Imipenem (+HIPS 5694 128 mg/L)” value (“MIC (mg/L) Imipenem” below) ([1]; +HIPS 5694 128 mg/L) turn out when `O=C(CCS)Nc1cccc(C(=O)O)c1` [HIPS5694, 3-(3-mercaptopropanamido)benzoic acid] was run?
Its value is 4 mg/L (≈ 17.8 µM).

What about the “HIPS 5694 MIG” value [1, 7] of the same compound?
The value was greater than 256 mg/L.

And the “HIPS 5694 MIG” value (E. coli KPC-2 (T2435))?
The value was greater than 256 mg/L.

And the “Imipenem MIC” value (E. coli NDM-1 (T2359); +2 mg/L compound)?
Its value is 128 µg/mL.

What about the “Imipenem MIC” value (E. coli NDM-1 (T2359); +4 mg/L compound) of the same compound?
Its value is 128 µg/mL.

What about the “Imipenem MIC” value (E. coli NDM-1 (T2359); +8 mg/L compound) of the same compound?
Its value is 64 µg/mL.

And the “Imipenem MIC” value (E. coli NDM-1 (T2359); +16 mg/L compound)?
Its value is 64 µg/mL.

And the “Imipenem MIC” value (E. coli NDM-1 (T2359); +32 mg/L compound)?
The value was 8 µg/mL.

And the “Imipenem MIC” value (E. coli NDM-1 (T2359); +64 mg/L compound)?
The value was 2 µg/mL.

And the “Imipenem MIC” value (E. coli NDM-1 (T2359); +128 mg/L compound)?
The value was no more than 0.5 µg/mL.

What about the “Imipenem MIC” value (E. coli VIM-1 (T2544); +2 mg/L compound) of the same compound?
Its value is 32 µg/mL.

What about the “Imipenem MIC” value (E. coli VIM-1 (T2544); +4 mg/L compound) of the same compound?
The value was 32 µg/mL.

What about the “Imipenem MIC” value (E. coli VIM-1 (T2544); +8 mg/L compound) of the same compound?
Its value is 32 µg/mL.

What about the “Imipenem MIC” value (E. coli VIM-1 (T2544); +16 mg/L compound) of the same compound?
Its value is 16 µg/mL.

What about the “Imipenem MIC” value (E. coli VIM-1 (T2544); +32 mg/L compound) of the same compound?
The value was 16 µg/mL.

And the “Imipenem MIC” value (E. coli VIM-1 (T2544); +64 mg/L compound)?
Its value is 8 µg/mL.

What about the “Imipenem MIC” value (E. coli VIM-1 (T2544); +128 mg/L compound) of the same compound?
The value was 0.5 µg/mL.

What about the “MIC (mg/L) Imipenem” value ([2]; +HIPS 5694 128 mg/L) of the same compound?
Its value is 0.5 mg/L (≈ 2.22 µM).

What about the “HIPS 5694 MIG” value [2, 7] of the same compound?
Its value is greater than 256 mg/L.

What about the “MIC (mg/L) Imipenem” value (E. cloacae VIM-1 (T2353); +HIPS 5694 128 mg/L) of the same compound?
The value was 2 mg/L (≈ 8.88 µM).

And the “HIPS 5694 MIG” value (E. cloacae VIM-1 (T2353); [7])?
Its value is greater than 256 mg/L.

What about the “HIPS 5694 MIG” value (E. cloacae GIM-1 (T2218)) of the same compound?
The value was greater than 256 mg/L.

What about the “Imipenem MIC” value (E. coli IMP-1 (T2360); +2 mg/L compound) of the same compound?
The value was 2 µg/mL.

And the “Imipenem MIC” value (E. coli IMP-1 (T2360); +4 mg/L compound)?
The value was 2 µg/mL.

And the “Imipenem MIC” value (E. coli IMP-1 (T2360); +8 mg/L compound)?
The value was 1 µg/mL.

And the “Imipenem MIC” value (E. coli IMP-1 (T2360); +16 mg/L compound)?
Its value is 1 µg/mL.

What about the “Imipenem MIC” value (E. coli IMP-1 (T2360); +32 mg/L compound) of the same compound?
Its value is 1 µg/mL.

And the “Imipenem MIC” value (E. coli IMP-1 (T2360); +64 mg/L compound)?
The value was 0.5 µg/mL.

What about the “Imipenem MIC” value (E. coli IMP-1 (T2360); +128 mg/L compound) of the same compound?
The value was 0.5 µg/mL.

What about the “MIC (mg/L) Imipenem” value (E. cloacae NDM-1 (T2311); +HIPS 5694 128 mg/L) of the same compound?
Its value is 1 mg/L (≈ 4.44 µM).

What about the “HIPS 5694 MIG” value (E. cloacae NDM-1 (T2311); [7]) of the same compound?
Its value is greater than 256 mg/L.

What about the “HIPS 5694 MIG” value [3] of the same compound?
The value was greater than 256 mg/L.

What about the IC50 (IMP-7) of the same compound?
Its IC50 is 6.4 ± 0.6 µM.

What about the “HIPS 5694 MIG” value [4] of the same compound?
The value was greater than 256 mg/L.

What about the “intrinsic antibacterial activity (MIC)” value [5] of the same compound?
Its value is “no intrinsic antibacterial activity”.

What about the “MIC (mg/L) Imipenem” value (E. coli NDM-7 (T2239); +HIPS 5694 128 mg/L) of the same compound?
Its value is 2 mg/L (≈ 8.88 µM).

What about the “HIPS 5694 MIG” value (E. coli NDM-7 (T2239); [7]) of the same compound?
The value was greater than 256 mg/L.

What about the IC50 (VIM-1) of the same compound?
Its IC50 is 1.2 µM.

What about the IC50 (NDM-1) of the same compound?
Its IC50 is 4 µM.

What about the “HIPS 5694 MIG” value [6] of the same compound?
Its value is greater than 256 mg/L.

And the “MIC (mg/L) Imipenem” value (E. coli NDM-5 (T2351); +HIPS 5694 128 mg/L)?
The value was 2 mg/L (≈ 8.88 µM).

And the “HIPS 5694 MIG” value (E. coli NDM-5 (T2351); [7])?
Its value is greater than 256 mg/L.
